The source of these data is patent US20260232759A1, “PEPTIDES THAT INHIBIT INFECTION BY SARS-COV-2, THE VIRUS THAT CAUSES COVID-19 DISEASE” (Wisconsin Alumni Research Foundation, priority 2021, published 2026).

One series concerns the target T1, SARS-CoV-2 S (Severe acute respiratory syndrome coronavirus 2, UniProt P0DTC2).
T1 construct: expressed in transfected cells
As to the kind of experiment: β-Gal complementation-based cell-cell fusion assay (S-protein-mediated fusion).

Series [1] is described as follows: Solubility of the peptides. The format is physicochemical.
[2] abbreviates: IC50, inhibition of S-mediated fusion.

Like-named read-outs stand apart in the source and are kept apart here. Starred links: 1 amine or outer side, 2 acyl side, 3 side chain; linkers in the order of their positions; H or OH if unused. Non-standard residues stand in square brackets, D forms with d. Residues, ends and D or L forms follow the SMILES beside them. *: point of attachment. X2 = CC(C)CCC[C@@H](C)[C@H]1CC[C@H]2[C@@H]3CC=C4C[C@@H](OC(=O)CCOCCOCCOCCOCCNC(=O)C*)CC[C@]4(C)[C@H]3CC[C@]12C; X1 = O=C([C@H]1CNC[C@@H]1N[*:1])[*:2]; β3hE = N[C@@H](CCC(=O)O)CC(=O)O; β3hQ = NC(=O)CC[C@H](N)CC(=O)O; β3hD = NC(CC(=O)O)CC(=O)O

As to “Ac-DISQINASVVNIEYEI[X1]KLE[β3hE]VA[X1]KLE[β3hE]SLIDLQELGSGSGC(X2)-NH2 [Bf APC/B3E]”, the IC50 at SARS-CoV-2 S ([…], cell-cell fusion assay, peptides with poly(ethylene glycol)-cholesterol tail, read-out: IC50, inhibition of S-mediated fusion) is approximately 50 nM. In turn, “Ac-[β3hD]IS[β3hQ]INASVVNIEYEIKKLEEVAKKLEESLI[β3hD]LQ[β3hE]LGSGSGC(X2)-NH2 [D1 Q4 D32 E35]” yielded an IC50 at SARS-CoV-2 S (setting [2]) of approximately 50 nM. Consider `CC[C@H](C)[C@H](NC(=O)[C@H](C)NC(=O)[C@H](CCC(=O)O)NC(=O)[C@H](CCC(=O)O)NC(=O)[C@H](CC(C)C)NC(=O)[C@H](CCCCN)NC(=O)[C@H](CCCCN)NC(=O)[C@H](CCSC)NC(=O)[C@H](CCC(=O)O)NC(=O)[C@H](Cc1ccc(O)cc1)NC(=O)[C@H](CCC(=O)O)NC(=O)[C@H](CC(C)C)NC(=O)[C@H](CC(=O)O)NC(=O)[C@H](CC(C)C)NC(=O)[C@H](Cc1ccccc1)NC(=O)[C@@H](NC(=O)[C@@H](NC(=O)[C@H](CC(N)=O)NC(=O)[C@@H](NC(=O)[C@H](CCC(N)=O)NC(=O)[C@H](CC(=O)O)NC(=O)[C@H](CC(C)C)NC(=O)[C@@H](N)CO)[C@@H](C)CC)C(C)C)[C@@H](C)O)C(=O)N[C@@H](CCCCN)C(=O)N[C@@H](CCCCN)C(=O)N[C@@H](CC(C)C)C(=O)N[C@@H](CCC(=O)O)C(=O)N[C@@H](CCC(=O)O)C(=O)N[C@@H](CO)C(=O)N[C@@H](Cc1ccc(O)cc1)C(=O)N[C@H](C(=O)N[C@@H](CC(=O)O)C(=O)N[C@@H](CC(C)C)C(=O)N[C@@H](CCCCN)C(=O)N[C@@H](CCC(=O)O)C(=O)N[C@@H](CC(C)C)C(N)=O)[C@@H](C)CC` [EK1], for which the “solubility (in words)” value in series [1] is recorded as “improved solubility”. Compound “Ac-[β3hD]IS[β3hQ]INASVVNIEYEIKKLEEVAKKLEESLI[β3hD]L[β3hQ]ELGSGSGC(X2)-NH2 [D1 Q4 D32 Q34]” displayed an IC50 on SARS-CoV-2 S (setting [2]) of approximately 10 nM.

As for `CC[C@H](C)[C@H](NC(=O)[C@H](CCC(N)=O)NC(=O)[C@H](CO)NC(=O)[C@@H](NC(=O)[C@@H](N)CC(=O)O)[C@@H](C)CC)C(=O)N[C@@H](CC(N)=O)C(=O)N[C@@H](C)C(=O)N[C@@H](CO)C(=O)N[C@H](C(=O)N[C@H](C(=O)N[C@@H](CC(N)=O)C(=O)N[C@H](C(=O)N[C@@H](CCC(=O)O)C(=O)N[C@@H](Cc1ccc(O)cc1)C(=O)N[C@@H](CCC(=O)O)C(=O)N[C@H](C(=O)N[C@@H](CCCCN)C(=O)N[C@@H](CCCCN)C(=O)N[C@@H](CC(C)C)C(=O)N[C@@H](CCC(=O)O)C(=O)N[C@@H](CCC(=O)O)C(=O)N[C@H](C(=O)N[C@@H](C)C(=O)N[C@@H](CCCCN)C(=O)N[C@@H](CCCCN)C(=O)N[C@@H](CC(C)C)C(=O)N[C@@H](CCC(=O)O)C(=O)N[C@@H](CCC(=O)O)C(=O)N[C@@H](CO)C(=O)N[C@@H](CC(C)C)C(=O)N[C@H](C(=O)N[C@@H](CC(=O)O)C(=O)N[C@@H](CC(C)C)C(=O)N[C@@H](CCC(N)=O)C(=O)N[C@@H](CCC(=O)O)C(=O)N[C@@H](CC(C)C)C(N)=O)[C@@H](C)CC)C(C)C)[C@@H](C)CC)[C@@H](C)CC)C(C)C)C(C)C` [Peptide 1] (H-DISQINASVVNIEYEIKKLEEVAKKLEESLIDLQEL-NH2; N-terminus and C-terminus assumed), the “solubility (in words)” value in series [1] is reported as “improved solubility”.
